{"source": "paper PMC5791972", "about": "(PLoS ONE, 2018)", "key": {"Kv4.3": {"target": "Kv4.3 (Homo sapiens, UniProt Q9UK17)", "assay": "Ion channel selectivity patch clamp", "assay_type": "cell-based", "conditions": "Voltage (+40 mV)"}, "in vitro": {"assay": "in vitro", "conditions": "plasma"}, "Kv1.5": {"target": "Kv1.5 (Homo sapiens, UniProt P22460)", "assay": "Ion channel selectivity patch clamp", "assay_type": "cell-based", "conditions": "Voltage (+40 mV)"}, "VPAC1 (VIP1) (h)": {"target": "T1, VPAC1 (VIP1) (h) (Homo sapiens, UniProt P32241)", "T1 construct": "host or cells: CHO cells", "T1 sequence (P32241 31-457)": "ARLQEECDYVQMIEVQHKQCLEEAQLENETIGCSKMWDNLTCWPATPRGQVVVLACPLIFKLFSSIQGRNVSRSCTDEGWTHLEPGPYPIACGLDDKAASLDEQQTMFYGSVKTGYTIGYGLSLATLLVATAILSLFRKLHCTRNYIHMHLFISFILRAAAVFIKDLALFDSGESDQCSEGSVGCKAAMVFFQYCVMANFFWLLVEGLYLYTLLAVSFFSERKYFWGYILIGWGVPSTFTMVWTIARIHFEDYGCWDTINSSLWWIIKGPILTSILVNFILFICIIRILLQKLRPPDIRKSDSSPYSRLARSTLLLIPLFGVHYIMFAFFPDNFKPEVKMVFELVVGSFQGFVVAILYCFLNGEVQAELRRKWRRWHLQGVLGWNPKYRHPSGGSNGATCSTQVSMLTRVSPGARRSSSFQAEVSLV", "assay_type": "binding", "conditions": "1.0E-06 M"}, "motilin (h)": {"target": "T2, motilin (h) (Homo sapiens, UniProt O43193)", "T2 construct": "host or cells: CHO cells", "T2 sequence (O43193 whole entry)": "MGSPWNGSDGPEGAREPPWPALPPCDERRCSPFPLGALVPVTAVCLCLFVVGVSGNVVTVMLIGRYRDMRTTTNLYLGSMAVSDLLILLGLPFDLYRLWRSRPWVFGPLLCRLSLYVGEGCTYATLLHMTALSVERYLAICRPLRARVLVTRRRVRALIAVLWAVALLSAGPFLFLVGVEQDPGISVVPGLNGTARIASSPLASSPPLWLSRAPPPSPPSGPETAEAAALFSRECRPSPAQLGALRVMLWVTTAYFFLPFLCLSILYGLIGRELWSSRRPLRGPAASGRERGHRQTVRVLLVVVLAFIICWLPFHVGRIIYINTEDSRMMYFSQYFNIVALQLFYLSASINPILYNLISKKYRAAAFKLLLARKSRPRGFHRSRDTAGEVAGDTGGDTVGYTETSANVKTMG", "assay_type": "binding"}, "caspase-3 (h)": {"target": "T3, caspase-3 (h) (Homo sapiens, UniProt P42574)", "T3 construct": "Cerep (contract assay); host or cells: E. coli", "T3 sequence (P42574 29-175 limits assumed)": "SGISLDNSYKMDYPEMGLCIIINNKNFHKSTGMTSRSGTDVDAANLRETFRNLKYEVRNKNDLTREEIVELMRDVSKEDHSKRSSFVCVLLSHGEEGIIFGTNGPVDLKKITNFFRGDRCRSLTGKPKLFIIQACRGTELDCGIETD", "T3 sequence (P42574 176-277 limits assumed)": "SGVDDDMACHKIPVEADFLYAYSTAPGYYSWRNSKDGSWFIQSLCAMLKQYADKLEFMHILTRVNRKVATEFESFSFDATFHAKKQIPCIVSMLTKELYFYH", "assay": "biochemical", "conditions": "1.0E-06 M"}, "NK2 (h)": {"target": "T4, NK2 (h) (Homo sapiens, UniProt P21452)", "T4 construct": "host or cells: CHO cells", "T4 sequence (P21452 1-398)": "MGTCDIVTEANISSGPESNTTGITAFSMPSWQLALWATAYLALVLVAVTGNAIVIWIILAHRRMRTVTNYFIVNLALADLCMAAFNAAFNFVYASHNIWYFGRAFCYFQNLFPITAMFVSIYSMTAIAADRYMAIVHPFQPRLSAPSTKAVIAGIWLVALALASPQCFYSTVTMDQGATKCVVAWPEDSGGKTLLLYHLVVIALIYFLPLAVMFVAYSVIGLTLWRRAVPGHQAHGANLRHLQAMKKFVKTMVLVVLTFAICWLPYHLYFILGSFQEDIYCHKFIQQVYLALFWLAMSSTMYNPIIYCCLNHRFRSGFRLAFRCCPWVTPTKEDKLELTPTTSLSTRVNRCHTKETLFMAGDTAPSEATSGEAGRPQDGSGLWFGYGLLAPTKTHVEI", "assay_type": "binding", "conditions": "1.0E-06 M"}, "mTRPC4": {"target": "T5, mTRPC4 (Mus musculus, UniProt Q9QUQ5)", "T5 construct": "The cDNAs for various full-length ion channels were subcloned into pcDNA5/TO; expressed in transfected cells", "assay": "Whole-cell manual patch clamp", "assay_type": "cell-based", "conditions": "10 µM carbachol /M1R"}, "β1 (h)": {"target": "T6, β1 (h) (Homo sapiens, UniProt P08588)", "T6 construct": "host or cells: HEK-293 cells", "T6 sequence (P08588 whole entry)": "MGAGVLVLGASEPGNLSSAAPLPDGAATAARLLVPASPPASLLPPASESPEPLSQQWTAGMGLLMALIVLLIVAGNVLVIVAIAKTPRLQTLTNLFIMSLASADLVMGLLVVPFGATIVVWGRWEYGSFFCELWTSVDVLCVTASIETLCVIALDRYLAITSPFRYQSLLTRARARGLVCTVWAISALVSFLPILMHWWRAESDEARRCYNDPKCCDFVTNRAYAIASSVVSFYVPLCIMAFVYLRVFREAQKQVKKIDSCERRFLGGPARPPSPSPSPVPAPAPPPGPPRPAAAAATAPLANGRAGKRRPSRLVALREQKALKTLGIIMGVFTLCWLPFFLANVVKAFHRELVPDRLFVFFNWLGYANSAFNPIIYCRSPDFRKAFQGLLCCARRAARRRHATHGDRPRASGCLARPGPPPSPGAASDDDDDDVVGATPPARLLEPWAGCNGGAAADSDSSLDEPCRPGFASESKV", "assay_type": "binding", "conditions": "1.0E-06 M"}, "5-HT4e (h)": {"target": "5-HT4e (h) (Homo sapiens, UniProt Q13639)", "sequence (Q13639 1-378 isoform Q13639-5)": "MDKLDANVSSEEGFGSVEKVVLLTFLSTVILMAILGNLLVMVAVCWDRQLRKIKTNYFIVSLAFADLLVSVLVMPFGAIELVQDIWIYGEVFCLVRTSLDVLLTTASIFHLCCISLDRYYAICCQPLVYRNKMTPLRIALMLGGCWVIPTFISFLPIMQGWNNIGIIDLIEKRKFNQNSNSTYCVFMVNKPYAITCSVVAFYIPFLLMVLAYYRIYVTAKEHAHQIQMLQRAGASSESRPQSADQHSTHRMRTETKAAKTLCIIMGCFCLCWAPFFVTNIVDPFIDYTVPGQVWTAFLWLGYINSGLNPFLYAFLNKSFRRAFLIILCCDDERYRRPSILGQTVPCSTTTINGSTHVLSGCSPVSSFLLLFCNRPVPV", "assay": "biochemical"}, "5-HT2B (h)": {"target": "T7, 5-HT2B (h) (Homo sapiens, UniProt P41595)", "T7 construct": "host or cells: CHO cells", "T7 sequence (P41595 whole entry)": "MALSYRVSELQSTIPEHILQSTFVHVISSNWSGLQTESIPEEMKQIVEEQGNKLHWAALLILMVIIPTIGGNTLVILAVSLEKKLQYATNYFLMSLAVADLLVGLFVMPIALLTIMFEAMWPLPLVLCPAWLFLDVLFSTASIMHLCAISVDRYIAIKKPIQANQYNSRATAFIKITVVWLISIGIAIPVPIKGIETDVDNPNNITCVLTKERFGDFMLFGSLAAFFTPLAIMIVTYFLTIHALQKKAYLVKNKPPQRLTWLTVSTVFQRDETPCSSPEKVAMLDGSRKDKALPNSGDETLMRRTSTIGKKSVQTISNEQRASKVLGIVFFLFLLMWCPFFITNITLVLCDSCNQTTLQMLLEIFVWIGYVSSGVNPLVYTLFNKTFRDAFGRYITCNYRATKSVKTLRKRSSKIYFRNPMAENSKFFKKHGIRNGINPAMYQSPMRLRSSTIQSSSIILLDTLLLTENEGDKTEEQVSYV", "assay_type": "binding", "conditions": "1.0E-06 M"}, "MMP-9 (h)": {"target": "MMP-9 (h) (Homo sapiens, UniProt P14780)", "sequence (P14780 94-707)": "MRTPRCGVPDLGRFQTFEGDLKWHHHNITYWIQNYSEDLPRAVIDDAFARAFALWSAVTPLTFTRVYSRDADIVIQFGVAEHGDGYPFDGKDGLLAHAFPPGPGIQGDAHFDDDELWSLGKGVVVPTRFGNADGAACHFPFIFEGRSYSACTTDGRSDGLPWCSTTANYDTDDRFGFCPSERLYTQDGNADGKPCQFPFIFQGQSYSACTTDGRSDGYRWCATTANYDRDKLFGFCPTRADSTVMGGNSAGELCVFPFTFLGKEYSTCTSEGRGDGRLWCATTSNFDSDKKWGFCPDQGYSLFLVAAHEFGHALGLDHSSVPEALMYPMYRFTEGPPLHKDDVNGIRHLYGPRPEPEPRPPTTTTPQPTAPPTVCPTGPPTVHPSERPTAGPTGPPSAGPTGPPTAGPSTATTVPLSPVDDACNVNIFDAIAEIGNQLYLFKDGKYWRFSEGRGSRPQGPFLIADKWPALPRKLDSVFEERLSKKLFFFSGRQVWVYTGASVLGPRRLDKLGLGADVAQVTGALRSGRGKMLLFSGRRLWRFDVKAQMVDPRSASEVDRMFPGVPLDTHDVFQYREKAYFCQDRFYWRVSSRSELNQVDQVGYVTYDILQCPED", "assay": "biochemical", "assay_type": "biochemical", "conditions": "1.0E-06 M"}, "A2A (h)": {"target": "A2A (h) (Homo sapiens, UniProt P29274)", "sequence (P29274 whole entry)": "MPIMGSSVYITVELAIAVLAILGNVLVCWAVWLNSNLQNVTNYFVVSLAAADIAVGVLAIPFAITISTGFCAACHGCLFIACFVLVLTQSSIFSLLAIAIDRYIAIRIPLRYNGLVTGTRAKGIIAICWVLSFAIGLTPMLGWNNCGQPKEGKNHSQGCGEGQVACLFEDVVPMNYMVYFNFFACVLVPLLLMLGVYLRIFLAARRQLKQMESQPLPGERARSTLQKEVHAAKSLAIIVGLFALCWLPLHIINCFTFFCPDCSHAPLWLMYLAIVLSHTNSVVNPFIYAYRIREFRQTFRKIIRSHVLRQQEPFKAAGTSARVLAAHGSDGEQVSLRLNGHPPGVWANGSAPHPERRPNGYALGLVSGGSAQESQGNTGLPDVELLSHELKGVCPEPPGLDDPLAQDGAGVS", "conditions": "1.0E-06 M"}, "BZD (central)": {"test_system": "BZD (central)", "assay_type": "binding, rat", "conditions": "1.0E-06 M"}, "β3 (h)": {"target": "T8, β3 (h) (Homo sapiens, UniProt P13945)", "T8 construct": "(endogenous); host or cells: SK-N-MC cells", "T8 sequence (P13945 whole entry)": "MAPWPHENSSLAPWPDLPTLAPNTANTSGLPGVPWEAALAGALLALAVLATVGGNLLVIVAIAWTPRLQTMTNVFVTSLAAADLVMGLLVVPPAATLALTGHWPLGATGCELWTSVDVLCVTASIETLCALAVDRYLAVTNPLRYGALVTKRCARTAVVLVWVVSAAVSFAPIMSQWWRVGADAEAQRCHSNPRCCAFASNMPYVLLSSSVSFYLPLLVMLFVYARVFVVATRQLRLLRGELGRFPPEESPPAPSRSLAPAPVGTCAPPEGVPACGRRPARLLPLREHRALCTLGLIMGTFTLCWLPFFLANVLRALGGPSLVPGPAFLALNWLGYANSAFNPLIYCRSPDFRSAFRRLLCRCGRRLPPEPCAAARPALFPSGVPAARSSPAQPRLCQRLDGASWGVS", "assay_type": "binding", "conditions": "1.0E-06 M"}, "[1]": {"target": "T9, FLT-1 kinase (h) (VEGFR1) (Homo sapiens, UniProt P17948)", "T9 construct": "host or cells: Sf9 cells", "T9 sequence (P17948 27-1338)": "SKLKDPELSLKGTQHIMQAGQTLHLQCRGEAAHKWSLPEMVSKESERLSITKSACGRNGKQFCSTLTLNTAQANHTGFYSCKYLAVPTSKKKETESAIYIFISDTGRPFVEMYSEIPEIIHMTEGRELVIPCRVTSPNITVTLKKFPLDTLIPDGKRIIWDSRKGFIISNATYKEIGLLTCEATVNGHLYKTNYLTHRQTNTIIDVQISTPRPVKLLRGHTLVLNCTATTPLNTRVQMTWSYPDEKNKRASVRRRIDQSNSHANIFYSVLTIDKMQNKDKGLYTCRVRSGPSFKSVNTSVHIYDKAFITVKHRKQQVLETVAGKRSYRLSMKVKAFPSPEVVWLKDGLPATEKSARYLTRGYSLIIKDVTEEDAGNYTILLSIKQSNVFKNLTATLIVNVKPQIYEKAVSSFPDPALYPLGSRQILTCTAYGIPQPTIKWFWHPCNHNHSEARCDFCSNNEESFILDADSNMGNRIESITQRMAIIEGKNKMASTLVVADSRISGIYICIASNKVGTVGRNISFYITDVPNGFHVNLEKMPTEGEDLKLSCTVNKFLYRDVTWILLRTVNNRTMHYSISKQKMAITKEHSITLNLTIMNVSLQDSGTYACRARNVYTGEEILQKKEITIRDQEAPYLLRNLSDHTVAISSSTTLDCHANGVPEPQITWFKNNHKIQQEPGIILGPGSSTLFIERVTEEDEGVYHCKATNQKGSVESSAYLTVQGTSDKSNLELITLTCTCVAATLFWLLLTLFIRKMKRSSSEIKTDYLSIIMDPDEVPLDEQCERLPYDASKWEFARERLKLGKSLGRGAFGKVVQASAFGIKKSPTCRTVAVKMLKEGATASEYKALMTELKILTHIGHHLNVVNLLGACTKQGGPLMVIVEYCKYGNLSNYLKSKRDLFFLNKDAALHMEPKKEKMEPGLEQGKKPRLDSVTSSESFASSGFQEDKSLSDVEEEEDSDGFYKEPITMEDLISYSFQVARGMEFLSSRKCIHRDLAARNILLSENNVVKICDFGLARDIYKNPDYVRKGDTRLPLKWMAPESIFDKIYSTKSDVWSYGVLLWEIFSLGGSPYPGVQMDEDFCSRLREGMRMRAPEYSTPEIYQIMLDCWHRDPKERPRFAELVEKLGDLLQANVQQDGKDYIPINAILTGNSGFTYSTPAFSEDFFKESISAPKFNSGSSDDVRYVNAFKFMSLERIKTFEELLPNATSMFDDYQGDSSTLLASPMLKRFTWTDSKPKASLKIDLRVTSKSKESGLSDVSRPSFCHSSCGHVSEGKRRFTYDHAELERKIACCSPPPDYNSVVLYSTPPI", "assay": "enzyme assay", "assay_type": "biochemical", "conditions": "1.0E-06 M"}, "MC1": {"target": "T10, MC1 (Mus musculus, UniProt Q01727)", "T10 construct": "(endogenous); host or cells: B16-F1 cells", "T10 sequence (Q01727 whole entry)": "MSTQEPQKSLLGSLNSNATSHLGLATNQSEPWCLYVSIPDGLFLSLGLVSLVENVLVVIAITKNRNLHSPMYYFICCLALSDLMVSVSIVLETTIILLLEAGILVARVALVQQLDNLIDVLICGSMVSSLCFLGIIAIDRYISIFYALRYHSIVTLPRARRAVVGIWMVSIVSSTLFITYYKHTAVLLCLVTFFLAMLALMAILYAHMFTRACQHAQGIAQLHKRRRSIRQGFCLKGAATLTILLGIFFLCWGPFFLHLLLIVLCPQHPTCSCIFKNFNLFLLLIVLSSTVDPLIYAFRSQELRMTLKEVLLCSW", "assay_type": "binding", "conditions": "1.0E-06 M"}}, "note": "Where two headings read alike, the source gives them in different places.", "data": [{"molecule": "Cn1c(=O)n(CCCO)c(=O)c2c1nc(Oc1cccc(Cl)c1)n2Cc1ccc(Cl)cc1", "note": "[HC-070]", "values": [{"measurement": "IC50", "setting": "Kv4.3", "value": "> 1900", "unit": "nM"}, {"measurement": "fraction unbound", "setting": "in vitro", "value": 0.004}, {"measurement": "IC50", "setting": "Kv1.5", "value": "> 1900", "unit": "nM"}]}, {"molecule": "Cn1c(=O)n(CCCO)c(=O)c2c1nc(Oc1cccc(OC(F)(F)F)c1)n2Cc1ccc(Cl)cc1", "note": "[HC-608]", "values": [{"measurement": "inhibition at 1 µM", "setting": "VPAC1 (VIP1) (h); read-out: % Inhibition 1st", "value": -9, "unit": "%"}, {"measurement": "inhibition at 1 µM", "setting": "VPAC1 (VIP1) (h); read-out: % Inhibition 2nd", "value": -8.4, "unit": "%"}, {"measurement": "inhibition at 1 µM", "setting": "VPAC1 (VIP1) (h); read-out: % Inhibition Mean", "value": -8.7, "unit": "%"}, {"measurement": "inhibition at 1 µM", "setting": "motilin (h); 1.0E-06 M, read-out: % Inhibition 1st", "value": -25.4, "unit": "%"}, {"measurement": "inhibition at 1 µM", "setting": "motilin (h); 1.0E-06 M, read-out: % Inhibition 2nd", "value": -16.2, "unit": "%"}, {"measurement": "inhibition at 1 µM", "setting": "motilin (h); read-out: % Inhibition Mean", "value": -20.8, "unit": "%"}, {"measurement": "inhibition at 1 µM", "setting": "caspase-3 (h); read-out: % Inhibition 1st", "value": 3.7, "unit": "%"}, {"measurement": "inhibition at 1 µM", "setting": "caspase-3 (h); read-out: % Inhibition 2nd", "value": 2.3, "unit": "%"}, {"measurement": "inhibition at 1 µM", "setting": "caspase-3 (h); read-out: % Inhibition Mean", "value": 3, "unit": "%"}, {"measurement": "inhibition at 1 µM", "setting": "NK2 (h); read-out: % Inhibition 1st", "value": -10, "unit": "%"}, {"measurement": "inhibition at 1 µM", "setting": "NK2 (h); read-out: % Inhibition 2nd", "value": 18.9, "unit": "%"}, {"measurement": "inhibition at 1 µM", "setting": "NK2 (h); read-out: % Inhibition Mean", "value": 4.4, "unit": "%"}, {"measurement": "IC50", "setting": "mTRPC4", "value": "~0.45", "unit": "nM"}, {"measurement": "inhibition at 1 µM", "setting": "β1 (h); read-out: % Inhibition 1st", "value": -14.5, "unit": "%"}, {"measurement": "inhibition at 1 µM", "setting": "β1 (h); read-out: % Inhibition 2nd", "value": -1.8, "unit": "%"}, {"measurement": "inhibition at 1 µM", "setting": "β1 (h); read-out: % Inhibition Mean", "value": -8.1, "unit": "%"}, {"measurement": "inhibition at 1 µM", "setting": "5-HT4e (h); read-out: % Inhibition 1st", "value": -3.7, "unit": "%"}, {"measurement": "inhibition at 1 µM", "setting": "5-HT4e (h); read-out: % Inhibition 2nd", "value": 10.6, "unit": "%"}, {"measurement": "inhibition at 1 µM", "setting": "5-HT4e (h); read-out: % Inhibition Mean", "value": 3.4, "unit": "%"}, {"measurement": "inhibition at 1 µM", "setting": "5-HT2B (h); read-out: % Inhibition 1st", "value": 15.9, "unit": "%"}, {"measurement": "inhibition at 1 µM", "setting": "5-HT2B (h); read-out: % Inhibition 2nd", "value": 15.8, "unit": "%"}, {"measurement": "inhibition at 1 µM", "setting": "5-HT2B (h); read-out: % Inhibition Mean", "value": 15.9, "unit": "%"}, {"measurement": "inhibition at 1 µM", "setting": "MMP-9 (h); read-out: % Inhibition 1st", "value": 8.7, "unit": "%"}, {"measurement": "inhibition at 1 µM", "setting": "MMP-9 (h); read-out: % Inhibition 2nd", "value": 17.2, "unit": "%"}, {"measurement": "inhibition at 1 µM", "setting": "MMP-9 (h); read-out: % Inhibition Mean", "value": 13, "unit": "%"}, {"measurement": "% Inhibition 1st", "setting": "A2A (h)", "value": 20.8, "unit": "%"}, {"measurement": "% Inhibition 2nd", "setting": "A2A (h)", "value": 31.1, "unit": "%"}, {"measurement": "% Inhibition Mean", "setting": "A2A (h)", "value": 25.9, "unit": "%"}, {"measurement": "% Inhibition 1st", "setting": "BZD (central)", "value": -3, "unit": "%"}, {"measurement": "% Inhibition 2nd", "setting": "BZD (central)", "value": -31.5, "unit": "%"}, {"measurement": "% Inhibition Mean", "setting": "BZD (central)", "value": -17.3, "unit": "%"}, {"measurement": "inhibition at 1 µM", "setting": "β3 (h); read-out: % Inhibition 1st", "value": 0.9, "unit": "%"}, {"measurement": "inhibition at 1 µM", "setting": "β3 (h); read-out: % Inhibition 2nd", "value": -6.7, "unit": "%"}, {"measurement": "inhibition at 1 µM", "setting": "β3 (h); read-out: % Inhibition Mean", "value": -2.9, "unit": "%"}, {"measurement": "inhibition at 1 µM", "setting": "[1]; read-out: % Inhibition 1st", "value": 9.3, "unit": "%"}, {"measurement": "inhibition at 1 µM", "setting": "[1]; read-out: % Inhibition 2nd", "value": 7.3, "unit": "%"}, {"measurement": "inhibition at 1 µM", "setting": "[1]; read-out: % Inhibition Mean", "value": 8.3, "unit": "%"}, {"measurement": "inhibition at 1 µM", "setting": "MC1; read-out: % Inhibition 1st", "value": 1, "unit": "%"}, {"measurement": "inhibition at 1 µM", "setting": "MC1; read-out: % Inhibition 2nd", "value": -3.6, "unit": "%"}, {"measurement": "inhibition at 1 µM", "setting": "MC1; read-out: % Inhibition Mean", "value": -1.3, "unit": "%"}]}]}
